What was measured:
[1] = tested on: glioma cell lines; details: by inhibiting eEF2-K; Parmer et al, 1997; cited from earlier work
[2] = biological target: eEF2K (Homo sapiens, UniProt O00418); details: known selenazine inhibitors; cited from earlier work
[3] = biological target: eEF2 kinase (Homo sapiens, UniProt O00418); test: eEF2 kinase activity assay with purified eEF2 (33P-ATP, SDS-PAGE, autoradiography); assay type: biochemical; details: purified eEF2, FIG. 1
Experimental: Recombinant eEF2 kinase (0.5 μg) was incubated with purified rabbit reticulocyte eEF2 (0.5 μg) in a reaction mixture consisting of 50 mM Hepes-KOH pH 6.6, 10 mM magnesium acetate, 5 mM DTT, 100 μM CaCl2, 0.5 μg calmodulin, 50 μM ATP, and 0.2 μCi [γ-^33P]-ATP (3000 Ci/mmol). The reactions were run at 30° C. for 15 minutes, and were terminated by incubation in an ice/water bath and addition of Laemmli sample buffer. Samples were analyzed by SDS-PAGE and autoradiography.

Chain of eEF2K (O00418 whole entry): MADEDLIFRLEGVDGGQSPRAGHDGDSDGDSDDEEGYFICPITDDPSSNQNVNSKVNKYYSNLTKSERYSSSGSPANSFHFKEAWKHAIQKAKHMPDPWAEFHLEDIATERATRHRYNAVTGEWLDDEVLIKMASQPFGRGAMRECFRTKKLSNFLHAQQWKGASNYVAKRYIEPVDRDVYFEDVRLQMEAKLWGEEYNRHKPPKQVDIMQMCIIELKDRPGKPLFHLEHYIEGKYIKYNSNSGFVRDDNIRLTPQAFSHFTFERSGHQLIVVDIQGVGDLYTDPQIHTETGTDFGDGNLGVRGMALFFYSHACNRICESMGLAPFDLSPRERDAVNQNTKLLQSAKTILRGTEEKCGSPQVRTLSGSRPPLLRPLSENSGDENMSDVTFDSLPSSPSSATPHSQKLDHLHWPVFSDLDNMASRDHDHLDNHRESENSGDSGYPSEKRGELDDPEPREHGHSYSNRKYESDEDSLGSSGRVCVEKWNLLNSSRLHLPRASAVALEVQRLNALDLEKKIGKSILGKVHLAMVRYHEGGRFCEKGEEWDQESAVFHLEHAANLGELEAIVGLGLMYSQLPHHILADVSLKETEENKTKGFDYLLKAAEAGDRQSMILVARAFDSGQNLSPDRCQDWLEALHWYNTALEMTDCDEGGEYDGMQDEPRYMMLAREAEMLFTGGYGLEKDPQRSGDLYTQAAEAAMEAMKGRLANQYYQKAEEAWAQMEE

| SMILES | inhibition of eEF2K phosphorylative activity [2] | also measured |
| --- | --- | --- |
| CC(=O)c1c(O)c(C)c(O)c(Cc2c(O)c3c(c(C(=O)/C=C/c4ccccc4)c2O)OC(C)(C)C=C3)c1O [Rottlerin] |  | inhibition of growth of glioma cell lines [1]: inhibit growth of glioma cell lines |
| CCC1(O)CC[Se]C(c2ccc(C)cc2)=N1 (centres unmarked) [TS2] | known to inhibit eEF2K phosphorylative activity |  |
| CCCCCC1=NC(O)(CC)CC[Se]1 (centres unmarked) [PS2] | known to inhibit eEF2K phosphorylative activity |  |
| Cc1ccc(C2=NC(C)(O)CC(C(C)C)[Se]2)cc1 (centres unmarked) [TS4] | known to inhibit eEF2K phosphorylative activity |  |
| CCCCCCCCCCCCC/C=C/[C@@H](O)[C@@H](N)COP(=O)(O)O [sphingosine-1-phosphate] |  | inhibition of eEF2 kinase in vitro [3]: inhibit eEF2 kinase in vitro |
